The values that follow come from patent US7271158B2, “Treatment of rumen acidosis with α-amylase inhibitors” (Pfizer Inc., priority 2000, dated 2007).

As usually defined, the IC50 is the concentration that inhibits the measured activity by half.

Assay [1] concerns bacterial glucosidase activity from bovine rumen fluid cell suspension. The assay can be described thus: Rumen fluid glucosidase assay. In kind it is biochemical, bovine rumen bacteria. The settings on record: rumen fluid glucosidase screen, maltose substrate. How it is done: Rumen Fluid Glucosidase Assay Protocol This assay is used to determine IC50 values for inhibitors of bacterial glucosidase activity from bovine rumen fluid cell suspension (RFCS) using a colorimetric assay. The assay measures conversion of maltose into glucose. Rumen fluid cells are incubated with maltose in the presence of inhibitors, and the amount of glucose produced is assessed using a red colourimetric endpoint. The higher the level of inhibition the lower the glucose produced and the less red colour produced. The plates are read at 450 nm. Main reaction: • Maltose+glucosidase→glucose Glucose assay • Glucose+ATP→[…] and ADP (Hexokinase and Mg^2+) • […] and NADP→6-phosphogluconate (6-PG) and NADPH • NADPH+phenazine methosulfate ([…] (iodonitrotetrazolium chloride)→[…] is deep red coloured. […] The rumen fluid was collected into pre-warmed vacuum flasks. It was then filtered through a double layer of absorbent gauze (Absorbent gauze BP, GAUZ 4 from Robert Bailey plc, Stockport) to remove hay and feed particles. The liquid was centrifuged at a relative centrifugal force of 650 for 15 minutes to remove food particles and protozoa. The supernatant was decanted into fresh tubes and centrifuged at a relative centrifugal force of 23,300 for 60 minutes. The supernatant and the loose top layer of the pellet were discarded. The pellet was resuspended in PBS at 1:8 of original volume i.e. 50 ml of PBS for the pellet from 400 ml of rumen fluid, and frozen at -20° C. When required for use the cells were thawed by standing the tube in cold water, and then diluted to […] of cells/well (45 μl/ml). Test compounds or controls were dispensed into the 96-well assay plate at 2 μl/well, followed by 50 μl per well of 10 mM maltose and 50 μl/well of rumen fluid cell suspension. The plate was incubated at 37° C. for 1 hour. Sigma glucose detection kit […] was reconstituted by addition of 17 ml of Millipore water and 4 ml of colour reagent to each vial. 100 μl of this solution was added per well and the plate returned to the 37° C. incubator for 45 minutes. The plate was then read at 450 nm. Active compounds cause a reduction in the optical density readings when compared to the no-inhibitor control wells.

In assay [2] the target is rumen fluid supernatant amylases. Description: Rumen bacterial amylase assay, protocol 1 (Sigma amylase kit 577). In kind it is biochemical, rumen bacteria, Hereford×Friesian calves. Particulars: for IC50: rumen fluid amylase screen using Sigma kit 577. An excerpt: Rumen Bacterial Amylase Assay—Protocol 1
The enzymatic reactions involved in the assay are as follows:
5 ET-G7PNP→(α-amylase)→2 ET-G5+2 G2PNP+2 ET-G4+2 G3PNP+ET-G3+G4-PNP2 G2PNP+2 G3 PNP→(α-glucosidase)→4 PNP +10 glucose
α-Amylase hydrolyses 4,6-ethylidene-G7-PNP (ET-G7 PNP) to G2, G3 and G4 PNP fragments. α-Glucosidase (α-1,4-glucan glucohydrolase EC 3.2.1.3) hydrolyses G2PNP and G3PNP to yield p-nitrophenol and glucose. Five moles of substrate (ET-G7PNP) is hydrolysed to yield 4 moles of p-nitrophenol p-Nitrophenol absorbs light as 405 nm, and following a two minute lag period the rate of increase in absorbance at 405 nm is directly proportional to α-amylase activity in the well.
Rumen fluid was collected from 4-month-old Hereford×Friesian calves (125–135 kg, supplied by Cwmnant Calves Ltd. Cwmnant. Tregaron. Ceredigion) fed on diet GH 313. The rumen fluid was collected from slaughtered calves into pre-warmed vacuum flasks, as soon as possible after euthanasia. It was then filtered through a double layer of absorbent gauze (Absorbent gauze BP, GAUZ 4 from Robert Bailey plc, Stockport) to remove hay and feed particles. The liquid was centrifuged at a relative centrifugal force of 23,300 for 60 minutes, and the supernatant decanted, avoiding contamination from the loose top layer of the pellet by careful pouring. The supernatant was then aliquoted into 50 ml plastic tubes and frozen at […]. When required for use in an assay the rumen fluid supernatant was thawed by standing the tubes in cold water. Test compounds or controls were dispensed into the 96-well assay plate at 4 μl/well. 100 μl per well of Sigma amylase reagent 577 (made up to half the volume described in the instructions (i.e. 10 ml for a 577-20 vial)) was then added to each well, followed by 100 μl per well of rumen fluid supernatant. A T=0 reading at 405 nm was taken at this stage using an Anthos plate reader. The plate was then incubated at room temperature or 37° C. until an optical density window of approximately 1.000U was seen (typically one hour at 37° C. or three hours at room temperature). A second reading was taken at 405 nm, and the first reading subtracted from it. Active compounds cause a reduction in the optical density readings when compared to the control without the agent being tested.

Assay [3] shares this target. The assay can be described thus: Rumen bacterial amylase assay, protocol 2 (amylose azure). The settings on record: read-out: Average IC50, rumen fluid amylase screen.
Assay [4] deals with rumen fluid fermentation (RUSITEC chronic acidosis model). The assay can be described thus: RUSITEC rumen simulation, chronic acidosis model: Example 8 and acarbose. In kind it is cell-based, cow. The settings on record: for proportional increase in butyrate production: treatment period vs control period (no treatment: 1%); for change in total VFA production: vs preceding control period (no treatment: −11%). The protocol:
RUSITEC Result using Example 8 and Acarbose
Daily maintenance procedures as previously described for Acarbose.
Rumen fluid donor cow—Fed GH313Pellets plus barley straw.
Daily Feed—30 g GH313 pellets plus 2.5 g chopped barley straw.
Acarbose: 1 tablet added to each bag to give 100 mg/vessel/d
Example 8: Eight×57 mg pre-weighed samples stored in fridge in […]. On the day before the feed bags were to be placed in RUSITEC, a 57 mg sample was dissolved in 2.28 ml buffer (25 mg/ml). 0.21 ml of this solution was added to 1.9 ml buffer to give a 2.5 mg/ml solution. 1 ml of each solution was added to a prepared feed bag to give 25 and 2.5 mg/vessel/d. and dried overnight at room temperature.

On to `C[C@H]1O[C@H](O[C@@H]2[C@H](O)[C@H](O)[C@@H](O[C@@H]3[C@H](O)[C@@H](O)[C@@H](O[C@@H]4[C@H](O)[C@H](O)[C@@H](O[C@H]5O[C@@H](CO)[C@H](O)[C@H](O)[C@H]5O)O[C@@H]4CO)O[C@@H]3CO)O[C@H]2CO)[C@H](O)[C@@H](O)[C@@H]1N[C@H]1C=C(CO)[C@@H](O[C@H]2O[C@H](CO)[C@H](O[C@H]3O[C@H](C)[C@@H](N[C@H]4C=C(CO)[C@@H](O)[C@H](O)[C@H]4O)[C@H](O)[C@H]3O)[C@H](O)[C@H]2O)[C@H](O)[C@H]1O` (stereo in doubt) [Trestatin A], for which the IC50 in assay [1] was 33.6 µM; in assay [2], 0.17 µM; in assay [3], 0.79 µM.
In the same order, the values of `CC1OC(OC2C(CO)OC(OC3C(CO)=CC(NC4C(C)OC(OC5C(CO)OC(OC6C(CO)OC(OC7C(CO)OC(O)C(O)C7O)C(O)C6O)C(O)C5O)C(O)C4O)C(O)C3O)C(O)C2O)C(O)C(O)C1NC1C=C(CO)C(O)C(O)C1O` (centres unmarked) [Example V-1532] are 65.5 µM, 0.57 µM and 2.07 µM.
On to `C[C@H]1O[C@H](O[C@H]2[C@H](O)[C@@H](O)[C@@H](O[C@H]3[C@H](O)[C@@H](O)[C@@H](O[C@H]4[C@H](O)[C@@H](O)[C@@H](O[C@H]5O[C@H](CO)[C@@H](O)[C@H](O)[C@H]5O)O[C@@H]4CO)O[C@@H]3CO)O[C@@H]2CO)[C@H](O)[C@@H](O)[C@@H]1N[C@H]1C=C(CO)[C@@H](O[C@H]2O[C@H](CO)[C@@H](O[C@H]3O[C@H](C)[C@@H](NC4C=C(CO)[C@@H](O[C@H]5O[C@H](CO)[C@@H](O[C@H]6O[C@H](C)[C@@H](NC7C=C(CO)[C@@H](O)[C@H](O)[C@H]7O)[C@H](O)[C@H]6O)[C@H](O)[C@H]5O)[C@H](O)[C@H]4O)[C@H](O)[C@H]3O)[C@H](O)[C@H]2O)[C@H](O)[C@H]1O` (some centres unmarked) [Trestatin C], for which the IC50 was 148 µM in assay [1] and 0.09 µM in assay [2].
As for `CC1OC(OC2C(CO)OC(OC3C(CO)=CC(NC4C(C)OC(OC5C(CO)OC(OC6C(CO)OC(OC7C(CO)OC(OC8C(CO)OC(O)C(O)C8O)C(O)C7O)C(O)C6O)C(O)C5O)C(O)C4O)C(O)C3O)C(O)C2O)C(O)C(O)C1NC1C=C(CO)C(O)C(O)C1O` (centres unmarked) [Example 8], the figures for the IC50 in assay [1], in assay [2] and in assay [3] were 13.1 µM, 0.44 µM and 9.45 µM, respectively. Further, the “increase in mean daily pH” value in assay [4] (0.02 mM) is reported as 0.3 units. Moreover, the “proportional increase in butyrate production” value was 18% in assay [4] (2.5 mg per vessel per day) and 20% in assay [4] (25 mg per vessel per day). The results for the “change in total VFA production” value in assay [4] (2.5 mg per vessel per day) and in assay [4] (25 mg per vessel per day) were −1% and −8%, respectively.
`C[C@H]1O[C@H](O[C@@H]2[C@H](O)[C@@H](O)[C@@H](O[C@@H]3[C@H](O)[C@@H](O)[C@@H](O[C@@H]4[C@H](O)[C@H](O)[C@@H](O[C@H]5O[C@H](CO)[C@H](O)[C@H](O)[C@H]5O)O[C@@H]4CO)O[C@@H]3CO)O[C@H]2CO)[C@@H](O)[C@@H](O)[C@@H]1N[C@@H]1C=C(CO)[C@@H](O)[C@@H](O)[C@@H]1O` (stereo in doubt) [Trestatin B]: the IC50 in assay [1] was found to be 4.1 µM; in assay [2], 2.89 µM.
Turning to `CC1OC(OC2C(CO)OC(OC3C(CO)OC(OC4C(CO)OC(OC5C(CO)OC(O)C(O)C5O)C(O)C4O)C(O)C3O)C(O)C2O)C(O)C(O)C1NC1C=C(CO)C(O)C(O)C1O` (centres unmarked) [Example 7], half-maximal inhibition in assay [1] (IC50) required 6.38 µM. Further, the “effect in the amylase screen” value in assay [2] is given as “inhibiting effect”.
